Values quoted from earlier work in patent US20090291974A1, “BOSENTAN SALTS” (priority 2008, published 2009).

How the values were obtained:
[1] = acidic and basic centers, overall value
[2] = not given; remark: listed apart in the source

Row | Compound | overall pKa [1] | solubility in aqueous solution at pH 1.1 (aqueous solution, pH 1.1) [mg/100 ml] | solubility in aqueous solution at pH 4.0 (aqueous solution, pH 4.0) [mg/100 ml] | solubility in aqueous solution at pH 5.0 (aqueous solution, pH 5.0) [mg/100 ml] | solubility in aqueous solution at pH 7.5 (aqueous solution, pH 7.5) [mg/100 ml] | solubility in water (water) [mg/100 ml] | solubility in acetone ([2]; acetone) | solubility in dichloromethane ([2]; dichloromethane) | solubility in ethanol ([2]; ethanol) | solubility in ethyl acetate ([2]; ethyl acetate) | solubility in hexane ([2]; hexane) | solubility in isopropanol ([2]; isopropanol) | solubility in methanol ([2]; methanol)
1 | COc1ccccc1Oc1c(NS(=O)(=O)c2ccc(C(C)(C)C)cc2)nc(-c2ncccn2)nc1OCCO [Bosentan] | 5.46 | 0.1 | 0.1 | 0.2 | 43 | 1.0 | – | – | – | – | – | – | –
2 | COc1ccccc1Oc1c(NS(=O)(=O)c2ccc(C(C)(C)C)cc2)nc(-c2ncccn2)nc1OCCO [Bosentan monohydrate, bosentan monohydrate] | – | – | – | – | – | – | freely soluble | freely soluble | soluble | soluble | very slightly soluble | slightly soluble | slightly soluble
